Experiments:
[1] = rat formalin test; cited from earlier work
anxiety = details: rats; zero plus maze; cited from earlier work
thermal nociception [2] = details: rat hot plate test; cited from earlier work
spasticity = details: CREAE mice; cited from earlier work
FAAH [3] = molecular target: T1, FAAH (Homo sapiens, UniProt O00519); details: cited from earlier work
T1 sequence (O00519 1-579): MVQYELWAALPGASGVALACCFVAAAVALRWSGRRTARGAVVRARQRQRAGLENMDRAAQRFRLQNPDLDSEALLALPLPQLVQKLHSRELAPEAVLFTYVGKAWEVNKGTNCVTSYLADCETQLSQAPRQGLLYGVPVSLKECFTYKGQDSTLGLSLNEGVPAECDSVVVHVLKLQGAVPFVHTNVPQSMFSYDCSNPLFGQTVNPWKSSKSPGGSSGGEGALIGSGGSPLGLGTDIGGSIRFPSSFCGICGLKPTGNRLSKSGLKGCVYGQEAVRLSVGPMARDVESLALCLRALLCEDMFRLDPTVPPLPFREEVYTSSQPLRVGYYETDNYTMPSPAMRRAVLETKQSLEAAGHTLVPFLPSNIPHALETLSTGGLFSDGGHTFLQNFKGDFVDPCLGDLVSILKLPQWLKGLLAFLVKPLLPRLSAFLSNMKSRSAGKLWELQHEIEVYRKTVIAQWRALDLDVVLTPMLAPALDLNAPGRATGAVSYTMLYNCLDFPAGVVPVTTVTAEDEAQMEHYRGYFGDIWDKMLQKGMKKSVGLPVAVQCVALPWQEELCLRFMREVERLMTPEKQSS

thermal nociception [4] = details: rats; tail emersion test; cited from earlier work
FAAH [5] = molecular target: T1, FAAH; assay: Assay Method 1: FAAH assay, 3H-anandamide hydrolysis in cell homogenate
Experimental: The assay mixture consisted of 50 μL of the cell homogenate, 10 μL of the test compound, and 40 μL of anandamide [1-^3H-ethanolamine] (^3H-AEA, Perkin-Elmer, 10.3 Ci/mmol), which was added last, for a final tracer concentration of 80 nM. The reaction mixture was incubated at rt for 1 h. During the incubation, 96-well Multiscreen filter plates (catalog number MAFCNOB50; Millipore, Bedford, Mass., USA) were loaded with 25 μL of activated charcoal (Multiscreen column loader, catalog number MACL09625, Millipore) and washed once with 100 μL of MeOH. […] After the 1 h incubation, 60 μL of the reaction mixture were transferred to the charcoal plates, which were then assembled on top of the DYNEX plates using Centrifuge Alignment Frames (catalog number MACF09604, Millipore). The unbound labeled ethanolamine was centrifuged through to the bottom plate (5 min at 2000 rpm), which was preloaded with the scintillant, as described above. The plates were sealed and left at rt for 1 h before counting on a Hewlett Packard TopCount. • Assay Method 2

Rat FAAH = molecular target: T2, Rat FAAH (Rattus norvegicus, UniProt P97612); assay: Assay Method 2: FAAH assay, 3H-anandamide hydrolysis in cell homogenate; type: biochemical; details: average of results obtained, > value = solubility limit or highest concentration tested
T2 construct: expressed in transfected cells
T2 sequence (P97612 1-579): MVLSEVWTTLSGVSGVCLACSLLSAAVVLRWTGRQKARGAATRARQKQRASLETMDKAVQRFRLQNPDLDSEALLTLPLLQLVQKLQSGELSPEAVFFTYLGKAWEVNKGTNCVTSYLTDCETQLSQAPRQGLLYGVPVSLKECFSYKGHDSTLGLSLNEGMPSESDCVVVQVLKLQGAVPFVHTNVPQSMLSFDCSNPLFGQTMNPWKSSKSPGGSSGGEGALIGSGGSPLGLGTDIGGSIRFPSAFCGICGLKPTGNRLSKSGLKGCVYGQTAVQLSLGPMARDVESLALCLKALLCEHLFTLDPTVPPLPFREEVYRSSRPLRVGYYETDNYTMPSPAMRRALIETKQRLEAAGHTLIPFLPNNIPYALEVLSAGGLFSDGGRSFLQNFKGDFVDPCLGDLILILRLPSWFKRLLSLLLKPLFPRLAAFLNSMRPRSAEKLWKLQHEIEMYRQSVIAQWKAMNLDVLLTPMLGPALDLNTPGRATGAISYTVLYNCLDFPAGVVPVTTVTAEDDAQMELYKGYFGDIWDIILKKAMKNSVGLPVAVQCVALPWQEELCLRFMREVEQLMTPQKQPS

neuropathic pain = details: rats; Chung spinal nerve ligation model; cited from earlier work
[6] = tested on: acute thermal nociception; details: rats; Hargraves test; cited from earlier work

| SMILES | IC50 (FAAH [5]) [nM] | IC50 (Rat FAAH) [nM] | other results |
| --- | --- | --- | --- |
| NC(=O)c1cccc(-c2cccc(OC(=O)NC3CCCCC3)c2)c1 [URB-597] |  |  | analgesic efficacy [1]: analgesic efficacy; efficacy in anxiety model (anxiety): efficacy; analgesic efficacy / activity (thermal nociception [2]): analgesic efficacy |
| CCCCCCCCCCCCCCCCS(=O)(=O)F [AM374] |  |  | reduction of spasticity (spasticity): significantly reduce spasticity |
| O=C(CCCCCCc1ccccc1)c1ncc(-c2ccccn2)o1 [OL-135] |  |  | inhibition of FAAH (FAAH [3]): potent inhibitor; analgesic activity (thermal nociception [4]): analgesic activity; analgesic efficacy / activity (thermal nociception [2]): analgesic activity |
| O=C(Nc1cnc2[nH]ccc2c1)N1CCC(Cc2ccc(Cl)c(Cl)c2)CC1 [Example 81, 4-(3,4-Dichloro-benzyl)-piperidine-1-carboxylic acid (1H-pyrrolo[2,3-b]pyridin-5-yl)-amide] | 3 | 3 |  |
| Cc1nc(-c2ccccc2)c(-c2ccccc2)n1CCCCCCNC(=O)Oc1ccccc1F [BMS-1] |  |  | analgesic effect (neuropathic pain): analgesic effect; analgesic effect [6]: analgesic effect |
| O=C(Nc1nc2ccccc2o1)N1CCN(Cc2ccc3c(c2)OC(F)(F)O3)CC1 [Example 68, 4-(2,2-Difluoro-benzo[1,3]dioxol-5-ylmethyl)-piperazine-1-carboxylic acid benzooxazol-2-ylamide] | > 10000 | > 10000 |  |
| O=C(Nc1noc2ncccc12)N1CCN(Cc2cccc(Oc3ccccc3)c2)CC1 [Example 27, 4-(3-Phenoxy-benzyl)-piperazine-1-carboxylic acid isoxazolo[5,4-b]pyridin-3-ylamide] | > 10000 | > 10000 |  |
| O=C(Nc1noc2ncccc12)N1CCN(Cc2cccc(Oc3cccc(Cl)c3)c2)CC1 [Example 23, 4-[3-(3-Chloro-phenoxy)-benzyl]-piperazine-1-carboxylic acid isoxazolo[5,4-b]pyridin-3-ylamide] | 220 | 300 |  |
| O=C(Nc1nocc1Cl)N1CCC(Cc2cnc3ccccc3c2)CC1 [Example 84, 4-Quinolin-3-ylmethyl-piperidine-1-carboxylic acid (4-chloro-isoxazol-3-yl)-amide] | 14 | 35 |  |
